Data: US6337184B1, “Molecular marker for muscle stem cells” (priority 1997, dated 2002)
“Also recorded” adds a separate entry of the source.

Legend:
Format in all cases: cell-based, mouse
C2C12 cells [1] = test: G-418 selection of untransfected and neo-transfected C2C12 cells; details: 500 μg/ml G-418, 11 days
Description: The Bcl-2 promoter-neo vector was prepared by using HindIII and MluI to excise the RSV promoter of pRSVneo (Gorman et al., Science 221:551-553 (1983)), after which an ˜2.6 kb PstI fragment of the human Bcl-2 promoter region (plasmid LB124; Chen et al., Mol. Cell. Biol. 15, 3840-3847 (1995)) was blunt-end ligated to the promotorless neo plasmid. C2C12 cells were transfected with Bcl-2-neo or pSV2neo using LIPOFECTAMINE™ (3:1 (w/w) 2,3-dioleyloxy-N-[2(spermine-carboxamido)ethyl]-N,N-dimethyl-1-propanaminiumtrifluoroacetate and dioleoyl phosphatidylethanolamine) (Gibco-BRL) and selected with G-418 (Dominov et al., Dev. Genet. 19, 108-118 (1996)).
To determine whether Bcl-2-expressing cells could function as stem cells, the differentiation of modified C2C12 cells that were selected based on their ability to express a Bcl-2 promoter fragment was examined. C2C12 cells were transfected with a plasmid in which expression of neomycin phosphotransferase was under the control of an ˜2.6 kb fragment of the human Bcl-2 promoter (Chen and Boxer, Mol. Cell. Biol. 15, 3840-3847 (1995)). From these transfections, four independent G-418-resistant lines (termed Bcl-2-neo cells) were isolated. […] In contrast, this treatment killed all untransfected C2C12 control cells and had no effect on C2C12 cells transfected with the ubiquitously expressed pSV2neo (FIG. 4). When transferred to fresh growth medium without G-418, the selected Bcl-2-neo cells resumed proliferation (FIG. 4) and were able to form multinucleate myotubes when switched to differentiation medium at confluence (not shown).

C2C12 cells [2] = test: MTT assay of mitochondrial function (cell viability) after apoptosis induction; details: serum-free medium with 0.5 μM staurosporine, compared to growth medium or 2% HS; 1-2 days
Description: C2C12 and Sol8 cells were maintained in growth medium (DMEM with 15% fetal bovine serum, 2 mM L-glutamine, 10 mM HEPES, pH 7.4, and 100 U/ml penicillin) and induced to form myotubes in differentiation medium (growth medium with 2% horse serum in place of fetal bovine serum) (Yaffe et al., Nature 270, 725-727 (1977); Blau et al., Science 230, 758-766 (1985); and Montarras et al., New Biologist 3, 592-600 (1991)). […] Apoptosis was induced by transferring the cells to serum-free differentiation medium, with or without 0.5 μM staurosporine, and cell viability was measured by the MTT assay of mitochondrial function (Jacobsen et al., EMBO J. 13, 1899-1910 (1994)).
In this experiment, apoptosis was induced and Bcl-2 expression, cell viability, and differentiation capability were examined in cultures of myogenic cells.

C2C12 cells [3] = test: Percentage of Bcl-2-expressing cells after apoptosis induction (immunostaining); details: serum-free medium with staurosporine; increased from less than 20%
Description: Apoptosis was induced by transferring the cells to serum-free differentiation medium, with or without 0.5 μM staurosporine, and cell viability was measured by the MTT assay of mitochondrial function (Jacobsen et al., EMBO J. 13, 1899-1910 (1994)).
The hamster mAb, 3 F11, is specific for mouse Bcl-2 (Krajewski et al., Cancer Res. 53, 4701-4714 (1993)) and was used at 25 μg/ml.

SMILES | effect on C2C12 cells carrying neo under SV40 promoter (pSV2neo) (C2C12 cells [1]) | survival of C2C12 cells carrying Bcl-2 promoter-neo fusion gene (Bcl-2-neo) (C2C12 cells [1]) | survival of untransfected C2C12 cells (control) (C2C12 cells [1]) | number of viable C2C12 cells (C2C12 cells [2]) | percentage of muscle stem cells in the population (C2C12 cells [3])
CN[C@@H]1[C@@H](O)[C@@H](O[C@@H]2[C@@H](O)[C@H](O[C@H]3O[C@H]([C@@H](C)O)[C@@H](O)[C@H](O)[C@H]3N)[C@@H](N)C[C@H]2N)OC[C@]1(C)O [G-418] | no effect | a portion of C2C12 cells that carry a Bcl-2 promoter-neo fusion gene (Bcl-2-neo) survived; also recorded: a portion of the cells remained viable | killed all | – | –
CN[C@@H]1C[C@H]2O[C@@](C)([C@@H]1OC)n1c3ccccc3c3c4c(c5c6ccccc6n2c5c31)C(=O)NC4 [staurosporine] | – | – | – | greatly reduced; also recorded: decreased | 50-80%
